Results published in ChEMBL document CHEMBL5291721, “A preclinical secondary pharmacology resource illuminates target-adverse drug reaction associations of marketed drugs” (Nat Commun, 2023).

Assays:
[1] = target: Epidermal growth factor receptor (Homo sapiens, UniProt P00533); type: functional
[2] = target: Rod cGMP-specific 3',5'-cyclic phosphodiesterase subunit alpha (Homo sapiens, UniProt P16499); type: functional
[3] = target: T1, Substance-K receptor (Homo sapiens, UniProt P21452)
T1 sequence (P21452 whole entry): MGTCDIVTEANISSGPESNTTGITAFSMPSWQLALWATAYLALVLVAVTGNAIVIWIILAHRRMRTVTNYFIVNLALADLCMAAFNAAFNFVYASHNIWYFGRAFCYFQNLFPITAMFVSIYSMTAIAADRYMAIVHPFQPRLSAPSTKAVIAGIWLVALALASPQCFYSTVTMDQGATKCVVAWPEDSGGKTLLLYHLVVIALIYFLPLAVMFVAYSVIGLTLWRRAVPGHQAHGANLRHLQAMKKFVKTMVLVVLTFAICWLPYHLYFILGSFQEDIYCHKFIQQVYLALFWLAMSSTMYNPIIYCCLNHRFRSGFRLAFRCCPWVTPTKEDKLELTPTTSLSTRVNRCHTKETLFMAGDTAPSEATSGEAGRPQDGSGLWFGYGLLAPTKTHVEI

[4] = target: T2, Muscarinic acetylcholine receptor M2 (Homo sapiens, UniProt P08172)
T2 sequence (P08172 whole entry): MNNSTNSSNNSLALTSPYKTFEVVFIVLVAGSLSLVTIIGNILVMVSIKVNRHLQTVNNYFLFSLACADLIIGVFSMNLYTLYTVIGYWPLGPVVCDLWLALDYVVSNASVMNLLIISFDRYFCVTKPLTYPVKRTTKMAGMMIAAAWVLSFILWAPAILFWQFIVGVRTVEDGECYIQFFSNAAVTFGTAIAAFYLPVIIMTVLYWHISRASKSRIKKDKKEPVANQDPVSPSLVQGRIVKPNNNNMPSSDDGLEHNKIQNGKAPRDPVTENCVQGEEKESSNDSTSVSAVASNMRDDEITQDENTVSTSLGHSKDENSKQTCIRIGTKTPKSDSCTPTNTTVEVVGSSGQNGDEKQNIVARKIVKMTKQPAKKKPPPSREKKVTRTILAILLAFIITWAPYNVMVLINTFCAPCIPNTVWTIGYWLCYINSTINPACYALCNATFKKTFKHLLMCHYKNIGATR

[5] = target: T3, Alpha-2A adrenergic receptor (Homo sapiens, UniProt P08913)
T3 sequence (P08913 whole entry): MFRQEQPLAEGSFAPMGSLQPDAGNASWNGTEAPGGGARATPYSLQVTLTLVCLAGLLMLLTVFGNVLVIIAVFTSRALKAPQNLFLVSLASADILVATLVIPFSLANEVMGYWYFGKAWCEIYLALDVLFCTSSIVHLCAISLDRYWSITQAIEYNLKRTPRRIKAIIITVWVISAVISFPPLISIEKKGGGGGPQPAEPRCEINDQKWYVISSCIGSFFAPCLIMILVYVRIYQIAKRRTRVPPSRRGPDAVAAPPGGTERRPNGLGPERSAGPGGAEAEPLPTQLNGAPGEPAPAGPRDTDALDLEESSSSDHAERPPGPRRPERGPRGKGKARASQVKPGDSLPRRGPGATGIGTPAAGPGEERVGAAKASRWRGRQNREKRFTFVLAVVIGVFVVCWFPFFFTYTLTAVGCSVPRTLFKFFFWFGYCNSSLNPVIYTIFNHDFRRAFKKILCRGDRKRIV

[6] = target: T4, Alpha-1A adrenergic receptor (Homo sapiens, UniProt P35348)
T4 sequence (P35348 whole entry): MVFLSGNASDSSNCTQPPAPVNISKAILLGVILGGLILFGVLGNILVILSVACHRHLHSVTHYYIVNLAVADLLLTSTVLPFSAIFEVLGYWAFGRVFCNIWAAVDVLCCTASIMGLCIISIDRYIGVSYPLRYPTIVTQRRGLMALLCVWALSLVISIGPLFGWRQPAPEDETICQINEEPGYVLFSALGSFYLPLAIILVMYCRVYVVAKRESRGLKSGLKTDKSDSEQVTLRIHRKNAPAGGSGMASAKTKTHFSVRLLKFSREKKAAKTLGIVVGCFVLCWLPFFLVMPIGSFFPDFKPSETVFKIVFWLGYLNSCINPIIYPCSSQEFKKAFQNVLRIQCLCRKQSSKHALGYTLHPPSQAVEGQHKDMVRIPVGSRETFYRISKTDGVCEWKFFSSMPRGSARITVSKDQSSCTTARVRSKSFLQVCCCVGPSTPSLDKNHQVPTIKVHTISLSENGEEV

[7] = target: Histamine H1 receptor (Homo sapiens, UniProt P35367); type: functional, cell-based
Histamine H1 receptor, sequence (P35367 whole entry): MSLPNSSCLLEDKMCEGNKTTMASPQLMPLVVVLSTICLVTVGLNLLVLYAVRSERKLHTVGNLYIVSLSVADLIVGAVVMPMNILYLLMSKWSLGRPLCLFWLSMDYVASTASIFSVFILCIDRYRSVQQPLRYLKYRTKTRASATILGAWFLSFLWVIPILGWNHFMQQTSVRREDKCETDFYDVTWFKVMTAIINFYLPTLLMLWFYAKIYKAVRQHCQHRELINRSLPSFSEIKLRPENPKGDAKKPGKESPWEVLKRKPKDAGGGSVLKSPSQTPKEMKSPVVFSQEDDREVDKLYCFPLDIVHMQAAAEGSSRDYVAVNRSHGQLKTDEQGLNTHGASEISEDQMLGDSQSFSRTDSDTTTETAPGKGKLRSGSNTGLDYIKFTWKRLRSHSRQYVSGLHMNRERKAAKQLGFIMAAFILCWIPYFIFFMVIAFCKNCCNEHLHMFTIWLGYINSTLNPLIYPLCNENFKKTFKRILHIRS

[8] = target: D(1A) dopamine receptor (Homo sapiens, UniProt P21728)
D(1A) dopamine receptor, sequence (P21728 whole entry): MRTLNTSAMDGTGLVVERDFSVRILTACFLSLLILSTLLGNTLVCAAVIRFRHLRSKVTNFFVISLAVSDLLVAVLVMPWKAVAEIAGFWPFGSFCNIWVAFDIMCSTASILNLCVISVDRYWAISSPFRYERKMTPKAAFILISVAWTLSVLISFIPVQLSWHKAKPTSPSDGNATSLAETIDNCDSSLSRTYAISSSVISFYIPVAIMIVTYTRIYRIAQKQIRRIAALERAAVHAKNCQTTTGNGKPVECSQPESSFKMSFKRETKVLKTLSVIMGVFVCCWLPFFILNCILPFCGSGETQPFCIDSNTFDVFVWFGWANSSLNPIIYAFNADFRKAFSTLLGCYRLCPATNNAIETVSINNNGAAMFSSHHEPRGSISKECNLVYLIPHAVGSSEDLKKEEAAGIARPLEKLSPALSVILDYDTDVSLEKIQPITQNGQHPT

[9] = target: T5, Peroxisome proliferator-activated receptor alpha (Homo sapiens, UniProt Q07869); type: functional
T5 sequence (Q07869 whole entry): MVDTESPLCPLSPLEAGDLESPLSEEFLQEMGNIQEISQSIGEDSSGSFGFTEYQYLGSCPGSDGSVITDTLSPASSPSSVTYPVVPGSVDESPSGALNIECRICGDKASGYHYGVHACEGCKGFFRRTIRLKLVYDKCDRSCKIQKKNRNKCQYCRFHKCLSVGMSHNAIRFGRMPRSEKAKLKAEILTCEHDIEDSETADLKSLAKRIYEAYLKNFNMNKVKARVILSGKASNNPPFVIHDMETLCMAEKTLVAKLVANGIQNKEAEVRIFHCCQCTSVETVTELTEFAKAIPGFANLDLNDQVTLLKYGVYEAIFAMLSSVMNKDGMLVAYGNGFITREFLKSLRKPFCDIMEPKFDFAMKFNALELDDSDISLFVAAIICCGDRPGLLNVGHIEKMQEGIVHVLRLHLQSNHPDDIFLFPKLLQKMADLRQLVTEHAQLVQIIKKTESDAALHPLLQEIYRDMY
Further: assay procedure not described here.

Epidermal growth factor receptor, sequence (P00533 whole entry): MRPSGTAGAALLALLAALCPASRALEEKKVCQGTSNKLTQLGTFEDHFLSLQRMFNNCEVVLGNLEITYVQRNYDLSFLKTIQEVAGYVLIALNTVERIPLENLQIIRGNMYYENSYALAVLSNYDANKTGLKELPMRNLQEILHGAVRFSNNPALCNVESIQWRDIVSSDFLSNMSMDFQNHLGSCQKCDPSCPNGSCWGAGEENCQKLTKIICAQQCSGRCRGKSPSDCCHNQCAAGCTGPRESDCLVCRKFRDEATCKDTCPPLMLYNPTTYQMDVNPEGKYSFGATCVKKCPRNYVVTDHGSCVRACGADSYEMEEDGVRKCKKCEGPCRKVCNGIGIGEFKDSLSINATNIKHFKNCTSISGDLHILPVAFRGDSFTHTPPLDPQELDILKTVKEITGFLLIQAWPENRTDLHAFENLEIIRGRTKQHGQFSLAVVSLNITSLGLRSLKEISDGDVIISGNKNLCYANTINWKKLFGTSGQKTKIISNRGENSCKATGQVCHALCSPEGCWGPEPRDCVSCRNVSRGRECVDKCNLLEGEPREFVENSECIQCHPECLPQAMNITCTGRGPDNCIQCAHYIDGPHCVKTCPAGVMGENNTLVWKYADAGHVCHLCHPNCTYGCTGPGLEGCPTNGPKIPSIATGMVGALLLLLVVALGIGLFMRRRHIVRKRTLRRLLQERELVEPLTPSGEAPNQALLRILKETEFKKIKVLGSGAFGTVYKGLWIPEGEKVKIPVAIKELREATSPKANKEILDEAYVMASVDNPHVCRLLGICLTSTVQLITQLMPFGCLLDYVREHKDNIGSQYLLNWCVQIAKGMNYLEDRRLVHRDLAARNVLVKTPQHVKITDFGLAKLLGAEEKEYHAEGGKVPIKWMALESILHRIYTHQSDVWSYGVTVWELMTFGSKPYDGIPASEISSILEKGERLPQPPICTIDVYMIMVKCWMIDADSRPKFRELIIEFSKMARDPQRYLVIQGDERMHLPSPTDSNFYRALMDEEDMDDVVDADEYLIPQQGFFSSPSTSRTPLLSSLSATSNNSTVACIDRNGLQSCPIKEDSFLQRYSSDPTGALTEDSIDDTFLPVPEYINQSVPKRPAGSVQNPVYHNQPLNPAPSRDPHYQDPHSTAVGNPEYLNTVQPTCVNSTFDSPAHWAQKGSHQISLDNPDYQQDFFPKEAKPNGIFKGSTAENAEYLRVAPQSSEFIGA
Rod cGMP-specific 3',5'-cyclic phosphodiesterase subunit alpha, sequence (P16499 whole entry): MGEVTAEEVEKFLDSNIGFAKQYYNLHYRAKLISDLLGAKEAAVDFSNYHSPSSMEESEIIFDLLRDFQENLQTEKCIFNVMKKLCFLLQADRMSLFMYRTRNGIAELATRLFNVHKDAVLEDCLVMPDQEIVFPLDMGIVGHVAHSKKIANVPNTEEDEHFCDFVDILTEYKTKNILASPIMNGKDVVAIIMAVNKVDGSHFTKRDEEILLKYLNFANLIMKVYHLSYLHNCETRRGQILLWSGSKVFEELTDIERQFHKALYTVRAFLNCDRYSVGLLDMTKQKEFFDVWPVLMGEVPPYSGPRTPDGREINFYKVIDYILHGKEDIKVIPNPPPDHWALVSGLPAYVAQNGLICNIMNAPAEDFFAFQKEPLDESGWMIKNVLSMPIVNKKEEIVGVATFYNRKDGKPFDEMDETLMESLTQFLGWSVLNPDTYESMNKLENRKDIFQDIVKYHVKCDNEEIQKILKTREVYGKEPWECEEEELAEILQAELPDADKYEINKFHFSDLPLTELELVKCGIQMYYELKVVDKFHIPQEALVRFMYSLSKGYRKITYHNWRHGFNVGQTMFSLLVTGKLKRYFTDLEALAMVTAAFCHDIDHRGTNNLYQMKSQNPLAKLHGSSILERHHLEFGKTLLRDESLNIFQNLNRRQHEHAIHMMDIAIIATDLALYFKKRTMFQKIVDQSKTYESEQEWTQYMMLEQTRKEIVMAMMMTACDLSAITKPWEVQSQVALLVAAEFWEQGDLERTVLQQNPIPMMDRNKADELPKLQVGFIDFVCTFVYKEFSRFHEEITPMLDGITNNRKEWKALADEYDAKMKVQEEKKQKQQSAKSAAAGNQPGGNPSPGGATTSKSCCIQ

Compound CO/N=C(\C(=O)N[C@@H]1C(=O)N2C(C(=O)[O-])=C(C[N+]3(C)CCCC3)CS[C@H]12)c1csc(N)n1 has an AC50 [1] greater than 300 µM.
For CCOC(=O)[C@H](CCc1ccccc1)N[C@@H](C)C(=O)N1CCC[C@H]1C(=O)O, the AC50 [2] was greater than 10 µM and the AC50 [3] was greater than 10 µM.
Nc1nc(N)c2nc(-c3ccccc3)c(N)nc2n1 gave an AC50 [2] greater than 10 µM, an AC50 [3] greater than 10 µM and an AC50 [4] greater than 30 µM. It also gave an AC50 [5] greater than 30 µM.
Oc1ncnc2[nH]ncc12 [ALLOPURINOL] gave an AC50 [4] greater than 30 µM and an AC50 [5] greater than 30 µM.
CC(=O)OCC(=O)[C@@]1(O)CC[C@H]2[C@@H]3CCC4=CC(=O)CC[C@]4(C)[C@H]3C(=O)C[C@@]21C [CORTISONE ACETATE] showed an AC50 [6] greater than 30 µM.
For COC(=O)[C@@H]1CC2=CC(=O)CC[C@]2(C)[C@@]23O[C@@H]2C[C@@]2(C)[C@@H](CC[C@@]24CCC(=O)O4)[C@H]13 [EPLERENONE], the AC50 [1] was greater than 30 µM and the AC50 [7] was greater than 30 µM.
With CCC(=O)O[C@H]1[C@H](O[C@@H]2[C@@H](C)[C@H](O[C@H]3C[C@@](C)(OC)[C@@H](O)[C@H](C)O3)[C@@H](C)C(=O)O[C@H](CC)[C@@](C)(O)[C@H](O)[C@@H](C)C(=O)[C@H](C)C[C@@]2(C)O)O[C@H](C)C[C@@H]1N(C)C [ERYTHROMYCIN PROPIONATE] the AC50 [6] was greater than 30 µM and the AC50 [8] was 17 µM.
With C#C[C@]1(O)CC[C@H]2[C@@H]3CCc4cc(O)ccc4[C@H]3CC[C@@]21C [ETHINYL ESTRADIOL] the AC50 [9] was greater than 30 µM.
NC(N)=Nc1nc(CSCCC(N)=NS(N)(=O)=O)cs1 [FAMOTIDINE] was tested, and the AC50 [2] was greater than 10 µM and the AC50 [3] was greater than 10 µM.
Work on CC(C)C(=O)Nc1ccc([N+](=O)[O-])c(C(F)(F)F)c1 [FLUTAMIDE] yielded an AC50 [4] greater than 30 µM and an AC50 [5] greater than 30 µM.
Work on COc1ccc2c(c1)C(=O)N(CCc1ccc(S(=O)(=O)NC(=O)NC3CCCCC3)cc1)C(=O)C2(C)C [GLIQUIDONE] yielded an AC50 [9] greater than 30 µM.
In the case of NS(=O)(=O)c1cc2c(cc1Cl)NCNS2(=O)=O [HYDROCHLOROTHIAZIDE], the AC50 [2] is reported as greater than 10 µM and the AC50 [3] is reported as greater than 10 µM.
CC(C)Cc1ccc(CC(=O)O)cc1 [IBUFENAC] gave an AC50 [1] greater than 30 µM.
In the case of CC(C)NNC(=O)c1ccncc1 [IPRONIAZID], the AC50 [1] is reported as greater than 30 µM.
With OC[C@@H](O)[C@@H](O)[C@H](O)[C@H](O)CO [MANNITOL] the AC50 [6] was greater than 30 µM and the AC50 [8] was greater than 30 µM.
CC(C(=O)O)c1ccc(N2CC=CC2)c(Cl)c1 (centres undefined) [PIRPROFEN] was tested, and the AC50 [7] was greater than 30 µM.
In the case of NC(=O)c1cnccn1 [PYRAZINAMIDE], the AC50 [4] is reported as greater than 30 µM and the AC50 [5] is reported as greater than 30 µM.
For O=C(NC[C@H]1CN(c2ccc(N3CCOCC3=O)cc2)C(=O)O1)c1ccc(Cl)s1 [RIVAROXABAN], the AC50 [9] was greater than 30 µM.
Cc1cc2c(cc1CC(=O)c1sccc1S(=O)(=O)Nc1onc(C)c1Cl)OCO2 [SITAXENTAN] showed an AC50 [6] greater than 30 µM and an AC50 [8] greater than 30 µM.
O=C(CCCCCCC(=O)Nc1ccccc1)NO [VORINOSTAT] was tested, and the AC50 [7] was greater than 30 µM and the AC50 [3] was greater than 10 µM.
